Assay [1] relates to P. aeruginosa ATCC 27853. Nature of the assay: microbe, parasite or virus in culture. The class given is cell-based. Particulars: Pseudomonas aeruginosa, ATCC27853, read-out: Minimum inhibitory concentration, P. aeruginosa ATCC 27853.
The subject of assay [2] is P. aeruginosa ATCC 35151. The assay can be described thus: microbe, parasite or virus in culture. The note with it: Pseudomonas aeruginosa, ATCC35151, read-out: Minimum inhibitory concentration, P. aeruginosa ATCC 35151. The class given is cell-based.
Assay [3] deals with P. aeruginosa CDC-0095. The assay can be described thus: microbe, parasite or virus in culture. The class given is cell-based. The note with it: Pseudomonas aeruginosa, CDC0095, read-out: Minimum inhibitory concentration, P. aeruginosa CDC-0095.
In assay [4] the test system is A. baumannii CDC-0033. The assay can be described thus: microbe, parasite or virus in culture. The assay is classed as cell-based. The note with it: Acinetobacter baumannii, CDC0033, read-out: MIC, A. baumannii CDC-0033.
For assay [5], the system named is B. humptydooensis ATCC BAA-2767. Nature of the assay: microbe, parasite or virus in culture. The assay is classed as cell-based. Particulars: Burkholderia humptydooensis, ATCCBAA2767, read-out: Minimum inhibitory concentration (MIC), B. humptydooensis ATCC BAA-2767.
Assay [6] relates to N. gonorrhoeae FA1090. The assay can be described thus: Liquid broth MIC in Fastidious broth. The note with it: Neisseria gonorrhoeae, FA1090, read-out: Minimum Inhibitory Concentration, FA 1090.
Procedure: Additional antibacterial testing of the series was performed in 8 reference strains of N. gonorrhoeae (ATCC 49226, FA1090, MS 11, WHO G, WHO L, WHO M, WHO K, WHO X, WHO Z, WHO Q, CDC-0197). ATCC 49226, FA1090, MS11, WHO G, WHO L, and WHO M produce wild type or wild-type like PBP2. WHO K, WHO X, WHO Z, WHO Q, and CDC-0197 produce mosaic PBP2. Liquid broth-based assays were used for antibacterial testing of PBP inhibitors in Neisseria gonorrhoeae. Briefly, cryo-preserved bacterial cultures of clinical strains were streaked for isolation on Chocolate Agar (72 g/L (2×) GC Agar Base (BD #228950) and 2% (2×) Hemoglobin was autoclaved at 121° C. for 20 minutes to sterilize. Once cooled to ˜50° C. the 2×GC Agar Base and 2× Hemoglobin solutions are combined and 1% IsoVitaleX Enrichment (BD #211876) was added to the solution). Strains were incubated at 36° C. and 5% CO2 to allow growth of colonies, 24 hours before inoculum preparation. 2-fold serial dilutions of test compounds were conducted in a 96 well plate with a final volume of 75 μL per well at 2-fold the final desired concentration in Fastidious broth (Remel #R07664). For preparation of assay inoculum, a direct suspension was prepared by aseptically swabbing 10-15 colonies from agar plates into culture tubes containing 2 mL of fresh sterile saline. After the dilution plates were set up, direct suspensions were then diluted in a cuvette containing sterile saline and the optical density was measured at 600 nm. Inocula were diluted such that 75 μL of this culture in Fastidious broth results in a starting bacterial concentration of 5×10^5 CFU/mL when added to the dilution plates. The plates were incubated for ˜24 hours at 36° C. and 5% CO2.
The subject of assay [7] is N. gonorrhoeae MS11. Nature of the assay: Liquid broth MIC in Fastidious broth. The note with it: Neisseria gonorrhoeae, MS11, read-out: Minimum Inhibitory Concentration, MS11.
Assay [8] concerns N. gonorrhoeae WHO G. Nature of the assay: Liquid broth MIC in Fastidious broth. Particulars: Neisseria gonorrhoeae, read-out: Minimum Inhibitory Concentration, WHO G.
Assay [9] concerns N. gonorrhoeae WHO L. The assay can be described thus: Liquid broth MIC in Fastidious broth. The note with it: Neisseria gonorrhoeae, read-out: Minimum Inhibitory Concentration, WHO L.
The test system of assay [10] is N. gonorrhoeae WHO K. The assay can be described thus: Liquid broth MIC in Fastidious broth. The note with it: Neisseria gonorrhoeae, read-out: Minimum Inhibitory Concentration, WHO K.
Procedure: Liquid broth-based assays were used for antibacterial testing of PBP inhibitors in Neisseria gonorrhoeae. Briefly, cryo-preserved bacterial cultures of clinical strains were streaked for isolation on Chocolate Agar (72 g/L (2×) GC Agar Base (BD #228950) and 2% (2×) Hemoglobin was autoclaved at 121° C. for 20 minutes to sterilize. Once cooled to ˜50° C. the 2×GC Agar Base and 2× Hemoglobin solutions are combined and 1% IsoVitaleX Enrichment (BD #211876) was added to the solution). Strains were incubated at 36° C. and 5% CO2 to allow growth of colonies, 24 hours before inoculum preparation. 2-fold serial dilutions of test compounds were conducted in a 96 well plate with a final volume of 75 μL per well at 2-fold the final desired concentration in Fastidious broth (Remel #R07664). For preparation of assay inoculum, a direct suspension was prepared by aseptically swabbing 10-15 colonies from agar plates into culture tubes containing 2 mL of fresh sterile saline. After the dilution plates were set up, direct suspensions were then diluted in a cuvette containing sterile saline and the optical density was measured at 600 nm. Inocula were diluted such that 75 μL of this culture in Fastidious broth results in a starting bacterial concentration of 5×10^5 CFU/mL when added to the dilution plates. The plates were incubated for ˜24 hours at 36° C. and 5% CO2.
Assay [11] relates to N. gonorrhoeae WHO X. The assay can be described thus: Liquid broth MIC in Fastidious broth. The note with it: Neisseria gonorrhoeae, read-out: Minimum Inhibitory Concentration, WHO X.
Assay [12] deals with N. gonorrhoeae CDC-0197. Nature of the assay: Liquid broth MIC in Fastidious broth. Particulars: Neisseria gonorrhoeae, CDC0197, read-out: Minimum Inhibitory Concentration, CDC-0197.

Converted amounts (≈) assume the structure as drawn.

As for `O=C(NCCCS(=O)(=O)N1CCN(C(=O)NC(C(=O)N[C@H]2Cc3ccc(F)c(C(=O)O)c3OB2O)c2cc(F)c(O)c(O)c2Cl)C1=O)Nc1cccnc1` (stereo partly drawn) [Example 278, (3R)-3-(2-(2-chloro-5-fluoro-3,4-dihydroxyphenyl)-2-(2-oxo-3-((3-(3-(pyridin-3-yl)ureido)propyl)sulfonyl)imidazolidine-1-carboxamido)acetamido)-7-fluoro-2-hydroxy-3,4-dihydro-2H-benzo[e][1,2]oxaborinine-8-carboxylic acid], the MIC in assay [1] was 2 to 4 µg/mL (≈ 2.51 to 5.03 µM); in assay [2], below 1 µg/mL; in [3], 8 to 16 µg/mL (≈ 10.1 to 20.1 µM); in assay [4] it was 8 to 16 µg/mL (≈ 10.1 to 20.1 µM); in assay [5], 2 to 4 µg/mL (≈ 2.51 to 5.03 µM); in assay [6], 4 to 8 µg/mL (≈ 5.03 to 10.1 µM). Besides, the MIC is 16 to 32 µg/mL (≈ 20.1 to 40.2 µM) in [7]; 16 to 32 µg/mL (≈ 20.1 to 40.2 µM) in assay [8]; above 64 µg/mL in assay [9]; above 64 µg/mL in assay [10]; above 64 µg/mL in assay [11]; 16 to 32 µg/mL (≈ 20.1 to 40.2 µM) in assay [12].

As for `O=C(NCCN1CCN(C(=O)N[C@@H](C(=O)N[C@H]2Cc3ccc(F)c(C(=O)O)c3OB2O)c2cc(F)c(O)c(O)c2Cl)C1=O)Nc1ccc(O)cc1` [Example 279, (R)-3-((R)-2-(2-chloro-5-fluoro-3,4-dihydroxyphenyl)-2-(3-(2-(3-(4-hydroxyphenyl)ureido)ethyl)-2-oxoimidazolidine-1-carboxamido)acetamido)-7-fluoro-2-hydroxy-3,4-dihydro-2H-benzo[e][1,2]oxaborinine-8-carboxylic acid], the MIC in assay [1] is 2 to 4 µg/mL (≈ 2.73 to 5.46 µM); in assay [2], below 1 µg/mL; in [3], 2 to 4 µg/mL (≈ 2.73 to 5.46 µM); in assay [4] it was 2 to 4 µg/mL (≈ 2.73 to 5.46 µM); in assay [5] it was below 1 µg/mL; in assay [6] it was below 1 µg/mL. The MIC was 4 to 8 µg/mL (≈ 5.46 to 10.9 µM) in assay [7]; 4 to 8 µg/mL (≈ 5.46 to 10.9 µM) in assay [8]; 16 to 32 µg/mL (≈ 21.8 to 43.7 µM) in assay [9]; 16 to 32 µg/mL (≈ 21.8 to 43.7 µM) in assay [10]; above 64 µg/mL in assay [11]; 4 to 8 µg/mL (≈ 5.46 to 10.9 µM) in assay [12].

In the case of `O=C(NCCCN1CCN(C(=O)NC(C(=O)N[C@H]2Cc3ccc(F)c(C(=O)O)c3OB2O)c2cc(F)c(O)c(O)c2Cl)C1=O)c1ccc(O)cc1` (stereo partly drawn) [Example 280, (3R)-3-(2-(2-chloro-5-fluoro-3,4-dihydroxyphenyl)-2-(3-(3-(4-hydroxybenzamido)propyl)-2-oxoimidazolidine-1-carboxamido)acetamido)-7-fluoro-2-hydroxy-3,4-dihydro-2H-benzo[e][1,2]oxaborinine-8-carboxylic acid], the MIC in assay [1] was 2 to 4 µg/mL (≈ 2.73 to 5.47 µM); in assay [2], below 1 µg/mL; in [3] it was 8 to 16 µg/mL (≈ 10.9 to 21.9 µM); in [4], 2 to 4 µg/mL (≈ 2.73 to 5.47 µM); in assay [5], 2 to 4 µg/mL (≈ 2.73 to 5.47 µM); in assay [6] it was 4 to 8 µg/mL (≈ 5.47 to 10.9 µM). The MIC in assay [7] is 16 to 32 µg/mL (≈ 21.9 to 43.7 µM); in [8], 16 to 32 µg/mL (≈ 21.9 to 43.7 µM); in [9], above 64 µg/mL; in assay [10], above 64 µg/mL; in [11], above 64 µg/mL; in assay [12], above 64 µg/mL.

Take `O=C(NCCCN1CCN(C(=O)NC(C(=O)N[C@H]2Cc3ccc(F)c(C(=O)O)c3OB2O)c2cc(F)c(O)c(O)c2Cl)C1=O)c1cccnc1` (stereo partly drawn) [Example 281, (3R)-3-(2-(2-chloro-5-fluoro-3,4-dihydroxyphenyl)-2-(3-(3-(nicotinamido)propyl)-2-oxoimidazolidine-1-carboxamido)acetamido)-7-fluoro-2-hydroxy-3,4-dihydro-2H-benzo[e][1,2]oxaborinine-8-carboxylic acid]: the MIC was 2 to 4 µg/mL (≈ 2.79 to 5.58 µM) in assay [1]; below 1 µg/mL in assay [2]; 2 to 4 µg/mL (≈ 2.79 to 5.58 µM) in assay [3]; 2 to 4 µg/mL (≈ 2.79 to 5.58 µM) in assay [4]; below 1 µg/mL in [5]; 4 to 8 µg/mL (≈ 5.58 to 11.2 µM) in assay [6]. Moreover, the MIC in [7] is above 64 µg/mL; in assay [8], 16 to 32 µg/mL (≈ 22.3 to 44.6 µM); in assay [9] it was above 64 µg/mL; in [10], above 64 µg/mL; in assay [11], above 64 µg/mL; in assay [12], above 64 µg/mL.

As to `O=C(NCCCN1CCN(C(=O)N[C@H](C(=O)N[C@H]2Cc3ccc(F)c(C(=O)O)c3OB2O)c2cc(F)c(O)c(O)c2Cl)C1=O)Nc1ccc(O)cc1` [Example 283, (R)-3-((S)-2-(2-chloro-5-fluoro-3,4-dihydroxyphenyl)-2-(3-(3-(3-(4-hydroxyphenyl)ureido)propyl)-2-oxoimidazolidine-1-carboxamido)acetamido)-7-fluoro-2-hydroxy-3,4-dihydro-2H-benzo[e][1,2]oxaborinine-8-carboxylic acid], the MIC is above 128 µg/mL in [1]; 2 to 4 µg/mL (≈ 2.68 to 5.36 µM) in [2]; above 128 µg/mL in assay [3]; above 128 µg/mL in assay [4]; above 128 µg/mL in [5]; above 64 µg/mL in assay [6]. Also, the MIC in assay [7], in assay [8], in assay [9], in assay [10], in assay [11] and in assay [12] was above 64 µg/mL each time.

On to `O=C(NCCCN1CCN(C(=O)N[C@@H](C(=O)N[C@H]2Cc3ccc(F)c(C(=O)O)c3OB2O)c2cc(F)c(O)c(O)c2Cl)C1=O)Nc1ccc(O)cc1` [Example 284, (R)-3-((R)-2-(2-chloro-5-fluoro-3,4-dihydroxyphenyl)-2-(3-(3-(3-(4-hydroxyphenyl)ureido)propyl)-2-oxoimidazolidine-1-carboxamido)acetamido)-7-fluoro-2-hydroxy-3,4-dihydro-2H-benzo[e][1,2]oxaborinine-8-carboxylic acid], for which the MIC in assay [1] was 2 to 4 µg/mL (≈ 2.68 to 5.36 µM); in [2], below 1 µg/mL; in assay [3] it was below 1 µg/mL; in assay [4] it was below 1 µg/mL; in [5] it was below 1 µg/mL; in assay [6] it was 1 to 2 µg/mL (≈ 1.34 to 2.68 µM). Further, the MIC in assay [7] was 4 to 8 µg/mL (≈ 5.36 to 10.7 µM); in assay [8] it was 4 to 8 µg/mL (≈ 5.36 to 10.7 µM); in assay [9] it was 16 to 32 µg/mL (≈ 21.4 to 42.8 µM); in assay [10], 16 to 32 µg/mL (≈ 21.4 to 42.8 µM); in [11], above 64 µg/mL; in assay [12], 16 to 32 µg/mL (≈ 21.4 to 42.8 µM).

For the compound `O=C(NCCCN1CCN(C(=O)NC(C(=O)N[C@H]2Cc3ccc(F)c(C(=O)O)c3OB2O)c2cc(F)c(O)c(O)c2Cl)C1=O)Nc1ccncc1` (stereo partly drawn) [Example 285, (3R)-3-(2-(2-chloro-5-fluoro-3,4-dihydroxyphenyl)-2-(2-oxo-3-(3-(3-(pyridin-4-yl)ureido)propyl)imidazolidine-1-carboxamido)acetamido)-7-fluoro-2-hydroxy-3,4-dihydro-2H-benzo[e][1,2]oxaborinine-8-carboxylic acid], the MIC in assay [1] was 8 to 16 µg/mL (≈ 10.9 to 21.9 µM); in assay [2], below 1 µg/mL; in [3], above 128 µg/mL; in assay [4], 8 to 16 µg/mL (≈ 10.9 to 21.9 µM); in assay [5], 2 to 4 µg/mL (≈ 2.73 to 5.47 µM); in [6] it was 4 to 8 µg/mL (≈ 5.47 to 10.9 µM). Besides, the MIC in [7], in assay [8], in assay [9], in [10], in assay [11] and in assay [12] was above 64 µg/mL in each case.

Consider `O=C(NCCS(=O)(=O)N1CCN(C(=O)N[C@H](C(=O)N[C@H]2Cc3ccc(F)c(C(=O)O)c3OB2O)c2cc(F)c(O)c(O)c2Cl)C1=O)c1ccc(O)cc1` [Example 286, (R)-3-((S)-2-(2-chloro-5-fluoro-3,4-dihydroxyphenyl)-2-(3-((2-(4-hydroxybenzamido)ethyl)sulfonyl)-2-oxoimidazolidine-1-carboxamido)acetamido)-7-fluoro-2-hydroxy-3,4-dihydro-2H-benzo[e][1,2]oxaborinine-8-carboxylic acid], for which the MIC was above 128 µg/mL in assay [1]; 8 to 16 µg/mL (≈ 10.2 to 20.5 µM) in [2]; above 128 µg/mL in [3]; above 128 µg/mL in [4]; above 128 µg/mL in [5]; above 64 µg/mL in [6]. Further, the MIC in assay [7], in [8], in [9], in assay [10], in assay [11] and in [12] was above 64 µg/mL each time.

As to `O=C(NCCS(=O)(=O)N1CCN(C(=O)N[C@@H](C(=O)N[C@H]2Cc3ccc(F)c(C(=O)O)c3OB2O)c2cc(F)c(O)c(O)c2Cl)C1=O)c1ccc(O)cc1` [Example 287, (R)-3-((R)-2-(2-chloro-5-fluoro-3,4-dihydroxyphenyl)-2-(3-((2-(4-hydroxybenzamido)ethyl)sulfonyl)-2-oxoimidazolidine-1-carboxamido)acetamido)-7-fluoro-2-hydroxy-3,4-dihydro-2H-benzo[e][1,2]oxaborinine-8-carboxylic acid], the MIC in assay [1] was 2 to 4 µg/mL (≈ 2.56 to 5.12 µM); in [2], below 1 µg/mL; in assay [3], 2 to 4 µg/mL (≈ 2.56 to 5.12 µM); in assay [4], below 1 µg/mL; in [5], below 1 µg/mL; in assay [6], 1 to 2 µg/mL (≈ 1.28 to 2.56 µM). Also, the MIC is 4 to 8 µg/mL (≈ 5.12 to 10.2 µM) in assay [7]; 4 to 8 µg/mL (≈ 5.12 to 10.2 µM) in assay [8]; above 64 µg/mL in assay [9]; 16 to 32 µg/mL (≈ 20.5 to 40.9 µM) in assay [10]; above 64 µg/mL in assay [11]; 16 to 32 µg/mL (≈ 20.5 to 40.9 µM) in [12].

(Values after US20240270762A1, “PENICILLIN-BINDING PROTEIN INHIBITORS” (priority 2021, published 2024).)
